Assay [1] relates to collagen I. Briefly: Collagen I expression in human HaCaT cells (western blot). In kind it is cell-based. Conditions: relative to 0 μM = 1.00. On the procedure:
(§1) The Spontaneously transformed human keratinocyte cell lines HaCaT cells were grown at 37° C. in a humidified incubator under 5% CO2 and 95% air in culture medium such as Dulbecco Modified Eagle Medium (DMEM) supplemented with 10% Fetal Bovine Serum (FBS), 100 IU/mL penicillin, 100 μg/mL of streptomycin, 2 mM sodium pyruvate and 1% Non-Essential Amino Acids (NEAA). The culture medium was replaced every other day. After confluence, the cells were subcultured following trypsinization. For subcultures cells were harvested after brief treatment with 0.1% trypsin/ethylenediaminetetraacetic acid (EDTA) solution and seeded at a dilution of 1:10. Cells between passages 12 and 45 were used for studies. The cells were seeded and incubated for 24 h before treated with the astragalosides for 24 h. Control cultures were maintained in medium supplemented with vehicle (dimethyl sulfoxide (DMSO) 0.1%). No growth and differentiation effects of DMSO were observed under these culture conditions.
(§2) The cells were treated with pure compounds such as astragaloside I (AS 1), astragaloside II (AS2), astragaloside III (AS3), astragaloside IV (AS4), astragaloside VI (AS6), isoastragaloside I (isoAS1), isoastragaloside II (isoAS2), and cycloastragenol 6-O-β-D-glucopyranose (AA) at concentrations of 0-10 μM. Alternatively, the cells were also treated with the crude extracts, such as butanol fraction and water insoluble fraction of Astragalus membranaceus at concentrations of 0, 1, 10, and 40 μg/mL. The cells were treated with the indicated compounds or the extracts for 24 h before harvested for analysis of collagen I and III expressed in the whole cell extract or secreted into the culture medium.
(§3) Western blot analysis was carried out on both of cultured medium and cell lysates. The cells were plated on 6-cm dishes at a density of 1×10^6 cells/dish for 24 h prior to treatment with indicated concentrations of astragalus triterpenoids as indicated for another 48 h. The conditioned culture mediums were then centrifuged, 2-fold concentrated and collected for assay of collagens and MMPs secreted into the culture medium. The cells were washed and lysed in 0.2 mL of lysis buffer (1% NP-40, 50 mM Tris-HCl, pH 7.4, 180 mM NaCl, 1 mM EDTA, 1 mM PMSF, 1 mM NaF, 10 mM Na3VO4) for 30 min at 4° C. After centrifuging at 17500 g for 15 min, the supernatants of cell lysate were also collected. Protein concentration of the samples were measured using the bicinchoninic acid (BCA) protein assay kit according to the manufacturer's protocol (Pierce, Rockford, Ill., USA). Equal amount of protein samples of concentrated conditioned medium (100 μg) or cell lysate supernatants (50 μg) were mixed with an appropriate volume of 4×SDS sampling buffer and separated by 8% SDS-PAGE gel. The protein bands separated in the SDS-PAGE gel were blotted onto a polyvinylidene fluoride (PVDF) membrane. The blotted PVDF membrane was washed twice and blocked in freshly prepared Tris-buffered saline (TBS) containing 0.1% Tween-20 and 7% skim milk (TBST) for 2 h at room temperature. The PVDF membrane was then incubated with either antibodies against collagen I and III or the housekeeping protein α-tubulin (Santa Cruz Biotechnology, Santa Cruz, Calif.) for 18 h at 4° C. Horseradish peroxidase-conjugated anti-goat antibody was used as secondary antibody. Signals were visualized by an enhanced chemiluminescence kit (Clonetech, Palo Alto, Calif., USA) followed by exposure to X-ray films.
Results shown represent the quantitated data from western blot analysis. […] The collagen I was also over-expressed in the human HaCaT cells treated with 40 μg/mL of astragaloside extract.
In general terms: A western blot detects proteins with antibodies after separation by electrophoresis.

Assay [2] has as its system collagen III. Briefly: Collagen III expression and secretion in human HaCaT cells (western blot). Particulars: relative to 0 = 1.00. Type of assay: cell-based. As to the method: as §1, §2, §3
The collagen III was also over-expressed in the human HaCaT cells treated with different doses (0.01, 0.1 and 1 μM) of the astragalosides, such as AS1, AS2 and AS3. Similarly, the collagen III was over-expressed in the human HaCaT cells treated with various dosages (1, 10 and 40 μg/mL) of the crude extract as shown in Table 1B. On the other hand, the amount of collagen III secreted into the medium was measured to determine the effect on cellular release of collagen III. […]

Assay [3] deals with hyaluronic acid (HA). The experiment in a line: HA measurement in culture medium of HaCaT cells (HA-ELISA). Type of assay: cell-based, human. Conditions: relative to 0 = 1.00. As to the method:
HA measurement was carried out as described (BBRC, 2004, 316: 348-355). Briefly, HaCaT or HDF cells were seeded and incubated in 24-well plates to confluency. Immediately before experiments, cells were washed twice with serum-free medium to completely remove HA accumulated during cell growth. The cells were then cultured with or without different compounds in 0.5 ml serum-free medium for 48 h. At the indicated time, aliquots of medium were removed, centrifuged at 15000 g for 5 min, and supernatants were analyzed for HA using an enzyme-linked immunosorbent assay (ELISA) kit (Echelon Bioscience, Salt Lake, Utah).
Results shown represent the fold of induction of the astragalosides on hyaluronic acid expression in HaCaT cells. The concentrations of astragalosides used were 0, 1, or 10 μM (unless indicated otherwise) for astragaloside pure compounds; were 0, 0.5, 1, 2.5, 5, 10, 40 μg/mL for the butanol fraction (unless indicated otherwise); and were 0, 1, 10, 40 μg/mL for the water insoluble fraction (unless indicated otherwise). The cells were treated with the indicated compounds for 24 h before harvested for analysis of secreted hyaluronic acid in culture medium using HA-ELISA kit.
In general terms: In an ELISA, binding on a coated surface is turned into a signal by an enzyme label.

The subject of assay [4] is HaCaT cells. The experiment in a line: Glucosamine uptake assay in HaCaT cells. Conditions: 0.1 μM; for Uptake rate (glucosamine): 48 h treatment; for Percentage (%) of control glucosamine uptake: relative to control. In kind it is cell-based, human. As to the method: In glucosamine uptake test, HaCaT cells were seeded into 24-well plate at a density of 3×10^4 cells/well and cultured for 24 h. The cells were then treated in the absence (solvent control) or presence of various concentrations of astragalosides for another 48 h. The treated cells were then washed twice with PBS and incubated in glucose and serum free medium (GSFM). After 2 h, the cells were replaced with fresh GSFM containing 0.2 μCi of [^14C]-Glucosamine (American Radiolabelled Chemicals Inc, ARC, St. Louis, Mo., USA). At the designated time interval, the cells were washed twice with GSFM containing cold glucosamine and then lysed in 200 μL 2% SDS. Cell lysates were centrifuged at 15000 g for 15 min. Intracellular uptaken glucosamine was determined by transferring 10 μL of the cell lysate to filter-bottemed UniFilter plates (Perkim-Elmer) and counted. Protein concentration of the samples was measured using the BCA protein assay kit as described above. Glucosamine accumulated in the cells was calculated and normalized to protein concentration and uptake rate was expressed as counts per minute per microgram of cell protein (cpm/min/μg).

In the case of `CC(=O)O[C@H]1[C@H](O[C@H]2CC[C@]34C[C@]35CC[C@]3(C)[C@@H]([C@@]6(C)CC[C@@H](C(C)(C)O)O6)[C@@H](O)C[C@@]3(C)[C@@H]5C[C@H](O[C@@H]3O[C@H](CO)[C@@H](O)[C@H](O)[C@H]3O)[C@H]4C2(C)C)OC[C@@H](O)[C@@H]1O` [AS2, astragaloside II], the “Collagen I in cell” value in assay [1] (0.01 μM) is 0.86; in assay [1] (0.1 μM), 1.14; in assay [1] (1 μM) it was 1.87. In addition, the “Collagen III in cell” value came out at 1.36 in assay [2] (0.01 μM), 1.44 in assay [2] (0.1 μM) and 1.49 in assay [2] (1 μM). For the same compound, the results for the “HA in medium (fold of induction)” value in assay [3] (1 μM) and in assay [3] (10 μM) were 1.98 and 1.31, respectively. The “Uptake rate (glucosamine)” value in assay [4] turned out to be 0.9561 ± 0.0918 CPM/μg protein. The “Percentage (%) of control glucosamine uptake” value (from here on “Percentage (%)”) in assay [4] stood at 116.00%.
Consider `CC(=O)O[C@H]1[C@H](O[C@H]2CC[C@]34C[C@]35CC[C@]3(C)[C@@H]([C@@]6(C)CC[C@@H](C(C)(C)O)O6)[C@@H](O)C[C@@]3(C)[C@@H]5C[C@H](O[C@@H]3O[C@H](CO)[C@@H](O)[C@H](O)[C@H]3O)[C@H]4C2(C)C)OC[C@@H](OC(C)=O)[C@@H]1O` [isoAS1, isoastragaloside I], for which the entries for the “Collagen I in cell” value in assay [1] (0.01 μM), in assay [1] (0.1 μM) and in assay [1] (1 μM) were 1.13, 1.06 and 1.19, respectively. In addition, the entries for the “Collagen III in medium” value in assay [2] (0.01 μM), in assay [2] (0.1 μM) and in assay [2] (1 μM) were 3.32, 4.41 and 6.53, respectively. The “Uptake rate (glucosamine)” value in assay [4] turned out to be 0.9589 ± 0.0665 CPM/μg protein. The “Percentage (%)” value in assay [4] stood at 116.34%.
Take `CC(C)(O)[C@@H]1CC[C@](C)([C@H]2[C@@H](O)C[C@@]3(C)[C@@H]4C[C@H](O[C@@H]5O[C@H](CO)[C@@H](O)[C@H](O)[C@H]5O)[C@H]5C(C)(C)[C@@H](O[C@@H]6OC[C@@H](O)[C@H](O)[C@H]6O)CC[C@@]56C[C@@]46CC[C@]23C)O1` [AS4, astragaloside IV]: the results for the “Collagen III in medium” value in assay [2] (0.01 μM), in assay [2] (0.1 μM) and in assay [2] (1 μM) were 0.79, 1.13 and 1.16, respectively. The “HA in medium (fold of induction)” value in assay [3] (1 μM) is recorded as 2.27; in assay [3] (10 μM), 1.31. Further, the “Uptake rate (glucosamine)” value in assay [4] turned out to be 0.8931 ± 0.0918 CPM/μg protein. Besides, the “Percentage (%)” value in assay [4] is reported as 108.36%.
Regarding astragaloside I [AS1], the “Collagen I in cell” value in assay [1] (0.01 μM) is listed as 1.13; in assay [1] (0.1 μM), 0.72; in assay [1] (1 μM), 1.22. Besides, the “Collagen III in cell” value in assay [2] (0.01 μM) is 1.29; in assay [2] (0.1 μM), 1.59; in assay [2] (1 μM) it was 2.63. In addition, the “HA in medium (fold of induction)” value in assay [3] (1 μM) was 1.45; in assay [3] (10 μM), 1.36. Besides, the “Uptake rate (glucosamine)” value in assay [4] was 1.0482 ± 0.0560 CPM/μg protein. Besides, the “Percentage (%)” value in assay [4] amounted to 127.18%.
As to `CC(C)(O)[C@@H]1CC[C@](C)([C@H]2[C@@H](O)C[C@@]3(C)[C@@H]4C[C@H](O[C@@H]5O[C@H](CO)[C@@H](O)[C@H](O)[C@H]5O)[C@H]5C(C)(C)[C@@H](O[C@@H]6OC[C@@H](O)[C@H](O)[C@H]6O[C@@H]6O[C@H](CO)[C@@H](O)[C@H](O)[C@H]6O)CC[C@@]56C[C@@]46CC[C@]23C)O1` [AS6, astragaloside VI], the “Collagen III in medium” value stood at 4.55 in assay [2] (0.01 μM), 4.27 in assay [2] (0.1 μM) and 3.86 in assay [2] (1 μM). Besides, the “HA in medium (fold of induction)” value is recorded as 1.13 in assay [3] (1 μM) and 1.38 in assay [3] (10 μM). In addition, in assay [4], the “Uptake rate (glucosamine)” value is given as 0.8471 ± 0.0278 CPM/μg protein. Further, the “Percentage (%)” value in assay [4] is 102.78%.
On to `CC(C)(O)[C@@H]1CC[C@](C)([C@H]2[C@@H](O)C[C@@]3(C)[C@@H]4C[C@H](O)[C@H]5C(C)(C)[C@@H](O[C@@H]6OC[C@@H](O)[C@H](O)[C@H]6O[C@@H]6O[C@H](CO)[C@@H](O)[C@H](O)[C@H]6O)CC[C@@]56C[C@@]46CC[C@]23C)O1` [AS3, astragaloside III], for which the “Collagen III in cell” value is given as 0.86 in assay [2] (0.01 μM), 1.22 in assay [2] (0.1 μM) and 2.12 in assay [2] (1 μM). Moreover, in assay [4], the “Uptake rate (glucosamine)” value is given as 1.0129 ± 0.0371 CPM/μg protein. In addition, in assay [4], the “Percentage (%)” value is reported as 122.90%.
With `CC(=O)O[C@@H]1[C@@H](O)[C@H](O[C@H]2CC[C@]34C[C@]35CC[C@]3(C)[C@@H]([C@@]6(C)CC[C@@H](C(C)(C)O)O6)[C@@H](O)C[C@@]3(C)[C@@H]5C[C@H](O[C@@H]3O[C@H](CO)[C@@H](O)[C@H](O)[C@H]3O)[C@H]4C2(C)C)OC[C@H]1O` [isoAS2, isoastragaloside II], the “Collagen I in cell” value in assay [1] (0.01 μM) amounted to 1.52; in assay [1] (0.1 μM), 0.94; in assay [1] (1 μM), 1.41. Further, the “Uptake rate (glucosamine)” value in assay [4] amounted to 0.9226 ± 0.0668 CPM/μg protein. Besides, in assay [4], the “Percentage (%)” value is recorded as 111.94%.

The record behind these values is patent US20080057010A1, “METHOD FOR SKIN CARE” (NULIV SCIENCE LTD., priority 2006, published 2008).
